Results on seven compounds are retold here after patent US5364942A, “Sulphonylbenzyl-substituted imidazopyridines” (Bayer Aktiengesellschaft, priority 1992, dated 1994).

pIC50, pKi: −log10 of the molar value.

The subject of assay [1] is angiotensin II-induced contraction of the isolated rabbit aorta. Put plainly: Inhibition of angiotensin II-induced vascular contraction on isolated aortic rings of the rabbit in vitro. The assay is classed as cell-based. The settings on record: Oryctolagus cuniculus, agonist angiotensin II, effect at 3rd = submaximal agonist concentration, read-out: IC50 against contractions induced by: AII. The protocol:
Rabbits of both sexes are stunned by a blow to the neck and exsanguinated, or in some cases anaesthetised with Nembutal (about 60-80 mg/kg i.v.) and sacrificed by opening the thorax. The thoracic aorta is removed, freed from attached connective tissue and divided into ring segments 1.5 mm wide, and the segments are introduced individually, under an initial load of about 3.5 g, in 10 ml organ baths containing carbogen-gassed Krebs-Henseleit nutrient solution thermostatically controlled at 37° C. and having the following composition: 119 mmol/l of NaCl; 2.5 mmol/l of CaCl2 ×2H2 O; 1.2 mmol/l of KH2 PO4; 10 mmol/l of glucose; 4.8 mmol/l of KCl; 1.4 mmol/l of MgSO4 ×7H2 O and 25 mmol/l of NaHCO3.
The contractions are recorded isometrically by Statham UC2 cells via bridged amplifiers (ifd Mulheim or DSM Aalen) and are digitised and evaluated by means of an A/D converter (System 570, Keithley Munich). The agonist dose/effect curves (DEC) are plotted hourly. With every DEC, 3 or 4 individual concentrations are applied to the baths at intervals of 4 minutes. The end of the DEC and subsequent wash-out cycles (16 times for in each case about 5 seconds/minute with the above nutrient solution) is followed by a 28-minute rest or incubation phase, during which the contractions as a rule reach the starting value again.
The level of the third DEC in the normal case is used as the reference parameter for evaluation of the test substance which is to be investigated in subsequent passes and is applied to the baths for the following DECs at the start of the incubation time at a dosage which increases each time. Each aortic ring is stimulated over the whole day with always the same agonist.
(§1) ______________________________________
Agonists and their standard concentrations (Application
volume per individual dose = 100 μl):
as §1
For calculation of the IC50 (concentration at which the substance under investigation causes 50% inhibition), the particular effect at the 3rd=submaximal agonist concentration is taken as the basis.

Assay [2] addresses T1, angiotensin II receptor (Bos taurus, UniProt P25104).
T1 construct: partly purified membrane fractions of bovine AC with radioactive angiotensin II; from tissue; host or cells: bovine adrenal cortex, partly purified membrane fractions
T1 sequence (P25104 1-359): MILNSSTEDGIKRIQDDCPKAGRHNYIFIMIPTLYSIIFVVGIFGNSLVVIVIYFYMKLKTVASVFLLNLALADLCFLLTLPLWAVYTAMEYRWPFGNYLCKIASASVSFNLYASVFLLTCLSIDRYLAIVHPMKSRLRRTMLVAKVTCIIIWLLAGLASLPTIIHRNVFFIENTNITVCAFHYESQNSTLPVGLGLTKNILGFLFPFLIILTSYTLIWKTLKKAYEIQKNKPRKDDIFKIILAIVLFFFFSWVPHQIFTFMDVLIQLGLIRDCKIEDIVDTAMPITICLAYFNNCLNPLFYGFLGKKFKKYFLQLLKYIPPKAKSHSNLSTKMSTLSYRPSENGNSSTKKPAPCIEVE
Put plainly: Interaction with the angiotensin II receptor on membrane fractions of the adrenal cortex. The assay is classed as binding, cattle. The settings on record: bovine adrenal cortex membranes; 3H-angiotensin II (3-5 nM); 60 minutes at room temperature. On the procedure: Adrenal cortices from cattle (AC), which are freshly removed and carefully freed from medulla of the capsule, are comminuted to a coarse membrane homogenate in sucrose solution (0.32M) with the aid of an Ultra-Turrax (Janke & Kunkel, Staufen i.B.), and the homogenate is partly purified to membrane fractions in two centrifugation steps.
The investigations on receptor bonding are carried out on partly purified membrane fractions of bovine AC with radioactive angiotensin II in an assay volume of 0.25 ml, which specifically contains the partly purified membranes (50-80 μg), 3H-angiotensin II (3-5 nM), test buffer solution (50 mM Tris, pH 7.2), 5 mM MgCl2 and the substances to be investigated. After an incubation time of 60 minutes at room temperature, the non-bonded radioactivity of the samples is separated off by means of a moistened glass fibre filter (Whatman GF/C) and, after the protein has been washed with ice-cold buffer solution (50 mM Tris/HCl, pH 7.4, 5% PEG 6000), the bonded radioactivity is measured by spectrophotometry in a scintillation cocktail. The raw data were analysed for Ki and IC50 values by computer programs (Ki : IC50 values corrected for the radioactivity used; IC50 values: concentration at which the substance under investigation causes 50% inhibition of the specific bonding of the radio ligand).

In assay [3] the test system is smooth muscle cells. Put plainly: Inhibition of proliferation of smooth muscle cells (3H-thymidine incorporation). The settings on record: 10^-6 M, smooth muscle cells from aortas of rats or pigs. The assay is classed as cell-based. The protocol:
Smooth muscle cells obtained from the aortas of rats or pigs by the media explantate technique [R. Ross, J. Cell. Biol. 50, 172, 1971] are used to determine the antiproliferative action of the compounds.
The cells are sown in suitable culture dishes, as a rule 24-hole plates, and cultured for 2-3 days in medium 199 with 7.5% of FCS and 7.5% of NCS, 2 mM L-glutamine and 15 mM HEPES, pH 7.4, in 5% CO2 at 37° C. The cells are then synchronised for 2-3 days by withdrawal of the serum, and subsequently stimulated into growth with AII, serum or other factors. Test compounds are added at the same time. […]
In general terms: Uptake of a labelled nucleoside into DNA is a usual measure of proliferation.

The test system of assay [4] is angiotensin II-infused rats. Put plainly: Blood pressure measurements on angiotensin II-infused rats. The class given is in vivo, Male Wistar rats. The following applies: angiotensin II-infused rats (0.3 μg/kg/minute), anaesthetised; dose 0.1 mg/kg p.o. On the procedure:
Male Wistar rats (Moellegaard, Copenhagen, Denmark) with a body weight of 300-350 g are anaesthetised with thiopental (100 mg/kg i.p.). After tracheotomy, a catheter for blood pressure measurement is inserted into the femoral artery and a catheter for angiotensin II infusion and a catheter for administration of the substance are inserted into the femoral veins. After administration of the ganglion blocker pentolinium (5 mg/kg i.v.), the angiotensin II infusion (0.3 μg/kg/minute) is started. As soon as the blood pressure values have reached a stable plateau, the test substances are administered either intravenously, or orally as a suspension or solution in 0.5% of tylose. The changes in blood pressure under the influence of the substance are shown as the mean values ±SEM in the table.

By pIC50 is commonly meant the negative decadic logarithm of the IC50, by convention in mol/L. Turning to `CCc1nc2c(C)cc(C)nc2n1Cc1ccc(S(=O)(=O)N2CCC[C@H]2C(=O)O)cc1Cl` [Example 41], the pIC50 in assay [1] is 8.52.

As for `COC(=O)[C@@H]1CCCN1S(=O)(=O)c1ccc(Cn2c(C3CC3)nc3c(C)ccnc32)c(Cl)c1` [Example 19], the pIC50 in assay [1] is 8.22.

Usually pKi stands for the Ki on a negative log10 scale, so that one unit is a factor of ten. As a reminder, the inhibition is the drop in the measured response relative to a control, in per cent. Lower therefore signals a weak effect. For the compound `CCCCc1nc2cccnc2n1Cc1ccc(S(=O)(=O)N2CCC[C@H]2C(=O)O)cc1Cl` [Example 5], the pIC50 in assay [1] was 7.40. Further, the pKi in assay [2] was 6.26. Also, at 1 µM the inhibition in assay [3] was 70%.

Take `CCc1nc2c(C)cc(C)nc2n1Cc1ccc(S(=O)(=O)N2CCC[C@H]2C(=O)OC)cc1Cl` [Example 20, S-4-[[2-Ethyl-imidazo[4,5-b]5,7-dimethyl-pyridin]-3-yl]methyl-3-chloro-benzenesulphonyl-N-(2-methoxy-carbonyl)pyrrolidinide]: in assay [1], the pIC50 is 8.22. In assay [4], the “ΔP (change in blood pressure)” value is -48 mm Hg.

For the compound `Cc1cc(C)c2nc(C3CC3)n(Cc3ccc(S(=O)(=O)N4CCC[C@H]4C(=O)O)cc3Cl)c2n1` [Example 39], the pIC50 in assay [1] is 8.52. For the same compound, the “ΔP (change in blood pressure)” value in assay [4] is given as -32 mm Hg.

For the compound `CCCCc1nc2cccnc2n1Cc1ccc(S(=O)(=O)N2CCCCC2C(=O)O)cc1Cl` (racemic) [Example 2, rac-4-[{2-Butyl-imidazo[4,5-b]pyridin}-3-yl]methyl-3-chlorobenzenesulphonyl-N-(2-carboxy)piperidinide], the pIC50 in assay [1] is 6.49. Moreover, in assay [2], the pKi is 6.00. The compound further yielded an inhibition at 1 µM in assay [3] of 40%.

For `COC(=O)[C@@H]1CCCN1S(=O)(=O)c1ccc(Cn2c(C3CC3)nc3c(C)cc(C)nc32)c(Cl)c1` [Example 31], the pIC50 in assay [1] was 8.40. Besides, in assay [4], the “ΔP (change in blood pressure)” value was -62 mm Hg.
